In patent publication US6635771B2, “N-benzhydryl indole compounds” (Wyeth, priority 2001, dated 2003):

What follows are molecules tested against T1, cPLA2 (Homo sapiens, UniProt P47712) (assay: Coumarine Assay). Settings: 60 μM 7-hydroxycoumarinyl 6-heptenoate substrate, 4 μg cPLA2, pH 7.5, fluorescence ex 360 nm / em 460 nm; read-out: Coumarin IC50.
T1 sequence (P47712 1-749): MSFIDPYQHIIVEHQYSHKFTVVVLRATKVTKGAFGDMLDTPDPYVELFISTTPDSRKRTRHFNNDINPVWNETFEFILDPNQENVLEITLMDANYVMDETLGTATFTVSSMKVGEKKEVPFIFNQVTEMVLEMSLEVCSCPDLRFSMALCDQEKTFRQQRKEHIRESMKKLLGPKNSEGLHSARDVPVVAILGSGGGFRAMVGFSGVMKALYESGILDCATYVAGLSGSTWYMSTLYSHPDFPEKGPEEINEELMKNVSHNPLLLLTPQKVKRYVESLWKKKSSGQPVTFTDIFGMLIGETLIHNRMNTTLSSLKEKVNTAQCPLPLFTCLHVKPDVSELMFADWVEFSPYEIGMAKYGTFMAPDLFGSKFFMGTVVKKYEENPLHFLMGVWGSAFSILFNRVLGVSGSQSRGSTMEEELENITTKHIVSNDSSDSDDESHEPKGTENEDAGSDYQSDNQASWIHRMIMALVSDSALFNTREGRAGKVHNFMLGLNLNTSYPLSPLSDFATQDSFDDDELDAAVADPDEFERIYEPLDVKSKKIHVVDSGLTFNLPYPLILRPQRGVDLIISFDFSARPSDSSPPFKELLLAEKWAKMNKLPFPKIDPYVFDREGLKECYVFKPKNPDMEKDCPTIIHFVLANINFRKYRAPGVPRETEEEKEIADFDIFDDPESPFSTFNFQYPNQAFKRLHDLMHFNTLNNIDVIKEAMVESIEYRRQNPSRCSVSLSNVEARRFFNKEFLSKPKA
Format: biochemical
Protocol: Inhibitors were mixed with 200 μL assay buffer (80 mM Heped, pH 7.5, 1 mM EDTA) containing 60 μM 7-hydroxycoumarinyl 6-heptenoate. The reaction was initiated by adding 4 μg cPLA2 in 50 μL assay buffer. Hydrolysis of the 7-hydroxycounarimyl 6-heptenoate ester was monitored in a fluorometer by exciting at 360 nm and monitoring emission at 460 nm. Enzyme activity is proportional to the increase in emission at 460 nm per minute. In the presence of a cPLA2 inhibitor, the rate of increase is less.
`CC1(C)C2CC[C@]1(CS(=O)(=O)NCCc1c(CCOc3ccc(C(=O)O)cc3)c3cc(Cl)ccc3n1C(c1ccccc1)c1ccccc1)C(=O)C2` [Example 6, 4-[2-(1-Benzhydryl-5-chloro-2-{2-[({[(1R)-7,7-dimethyl-2-oxobicyclo[2.2.1]hept-1-yl]methyl}sulfonyl)amino]ethyl}-1H-indol-3-yl)ethoxy]benzoic acid] was tested, and the IC50 was 2000 nM. `O=C(O)c1ccc(CCCc2c(CCNS(=O)(=O)Cc3cccc(C(F)(F)F)c3)n(C(c3ccccc3)c3ccccc3)c3ccc(Cl)cc23)cc1` [Example 59, 4-(3-{1-benzhydryl-5-chloro-2-[2-({[3-(trifluoromethyl)benzyl]sulfonyl}amino)ethyl]-1H-indol-3-yl}propyl)benzoic acid] gave an IC50 of 290 nM. Molecule `O=C(O)c1ccc(OCCc2c(CCNS(=O)(=O)Cc3nc4ccccc4o3)n(C(c3ccccc3)c3ccccc3)c3ccc(Cl)cc23)cc1` [Example 110, 4-{2-[1-Benzhydryl-2-(2-{[(1,3-benzoxazol-2-ylmethyl)sulfonyl]amino}ethyl)-5-chloro-1H-indol-3-yl]ethoxy}benzoic acid] has an IC50 of 500 nM. In the case of `COc1ccc(OC)c(SCS(=O)(=O)NCCc2c(CCOc3ccc(C(=O)O)cc3)c3cc(Cl)ccc3n2C(c2ccccc2)c2ccccc2)c1` [Example 121, 4-(2-{1-benzhydryl-5-chloro-2-[2-(2,5-dimethoxy-phenylsulfanylmethanesulfonylamino)-ethyl]-1H-indol-3-yl}-ethoxy)-benzoic acid], the IC50 is reported as 460 nM. Molecule `O=C(O)c1ccc(CCCc2c(CCNS(=O)(=O)Cc3cccnc3)n(C(c3ccccc3)c3ccccc3)c3ccc(Cl)cc23)cc1` [Example 62, 4-(3-[1-benzhydryl-5-chloro-2-(2-{[(3-pyridinylmethyl)sulfonyl]amino}ethyl)-1H-indol-3-yl]propyl}benzoic acid] has an IC50 of 380 nM. Work on `O=C(O)c1ccc(OCCc2c(CCNS(=O)(=O)Cc3ccc(OC(F)(F)F)cc3)n(C(c3ccccc3)c3ccccc3)c3ccc(Cl)cc23)cc1` [Example 71, 4-{2-[1-Benzhydryl-5-chloro-2-(2-{[(4-trifluorometoxybenzyl)sulfonyl]amino}ethyl)-1H-indol-3-yl]ethoxy}benzoic acid] yielded an IC50 of 450 nM. `O=C(O)c1ccc(OCCc2c(CCNS(=O)(=O)Cc3ccc(Cl)nc3)n(C(c3ccccc3)c3ccccc3)c3ccc(Cl)cc23)cc1` [Example 75, 4-(2-{1-benzhydryl-5-chloro-2-[2-({[(6-chloro-3-pyridinyl)methyl]sulfonyl}amino)ethyl]-1H-indol-3-yl}ethoxy)benzoic acid] gave an IC50 of 400 nM. For “4-{2-[1-Benzhydryl-5-chloro-2-(2-{[(2-cyanobenzyl)sulfonyl]amino}ethyl)-1H-indol-3-yl]ethoxy)benzoic acid [Example 35]”, the IC50 was 330 nM. Work on `O=C(O)c1ccc(OCCc2c(CCNS(=O)(=O)CCN3CCNC3=S)n(C(c3ccccc3)c3ccccc3)c3ccc(Cl)cc23)cc1` [Example 97, 4-(2-{1-benzhydryl-5-chloro-2-[2-({[2-(2-thioxo-1-imidazolidinyl)ethyl]sulfonyl}amino)ethyl]-1H-indol-3-yl}ethoxy)benzoic acid] yielded an IC50 of 950 nM. Work on `O=C(O)c1ccc(S(=O)(=O)CCc2c(CCNS(=O)(=O)Cc3ccccc3Cl)n(C(c3ccccc3)c3ccccc3)c3ccc(Cl)cc23)cc1` [Example 136] yielded an IC50 of 180 nM. Work on `O=C(O)c1ccc(CCCc2c(CCNS(=O)(=O)Cc3ccccc3)n(C(c3ccccc3)c3ccccc3)c3ccc(Cl)cc23)cc1` [Example 42, 4-{3-[1-Benzhydryl-5-chloro-2-(2-phenylmethanesulfonylamino-ethyl)-1H-indol-3-yl]-propyl)-benzoic acid] yielded an IC50 of 180 nM. Work on `Cc1cc(C)cc(CS(=O)(=O)NCCc2c(CCOc3ccc(C(=O)O)cc3)c3cc(Cl)ccc3n2C(c2ccccc2)c2ccccc2)c1` [Example 78, 4-{2-[1-Benzhydryl-5-chloro-2-(2-{[(3,5-dimethylbenzyl)sulfonyl]amino}ethyl)-1H-indol-3-yl]ethoxy)benzoic acid] yielded an IC50 of 340 nM. With `CN(C)S(=O)(=O)NCCc1c(CCOc2ccc(C(=O)O)cc2)c2cc(Cl)ccc2n1C(c1ccccc1)c1ccccc1` [Example 17, 4-{2-[1-Benzhydryl-5-chloro-2-(2-{[(dimethylamino)sulfonyl]amino}ethyl)-1H-indol-3-yl]ethoxy}benzoic acid] the IC50 was 200 nM. `O=C(O)c1ccc(OCCc2c(CCNS(=O)(=O)CCN3CCCC3)n(C(c3ccccc3)c3ccccc3)c3ccc(Cl)cc23)cc1` [Example 139, 4-(2-{1-Benzhydryl-5-chloro-2-[2-(2-pyrrolidin-1-yl-ethanesulfonylamino)-ethyl]-1H-indol-3-yl}-ethoxy)-benzoic acid] was tested, and the IC50 was 1700 nM. Work on `O=C(O)c1ccc(OCCc2c(CCNS(=O)(=O)Cc3cccc([N+](=O)[O-])c3)n(C(c3ccccc3)c3ccccc3)c3ccc(Cl)cc23)cc1` [Example 55, 4-{2-[1-benzhydryl-5-chloro-2-(2-{[(3-nitrobenzyl)sulfonyl]amino}ethyl)-1H-indol-3-yl]ethoxy}benzoic acid] yielded an IC50 of 260 nM. Molecule `Cc1ccccc1CS(=O)(=O)NCCc1c(CCOc2ccc(C(=O)O)cc2)c2cc(Cl)ccc2n1C(c1ccccc1)c1ccccc1` [Example 79, 4-{2-[1-Benzhydryl-5-chloro-2-(2-{[(2-methylbenzyl)sulfonyl]amino}ethyl)-1H-indol3-yl]ethoxy}benzoic acid] has an IC50 of 150 nM. For `COc1cccc(CS(=O)(=O)NCCc2c(CCCc3ccc(C(=O)O)cc3)c3cc(Cl)ccc3n2C(c2ccccc2)c2ccccc2)c1` [Example 68, 4-{3-[1-benzhydryl-5-chloro-2-(2-{[(3-methoxybenzyl)sulfonyl]amino}ethyl)-1H-indol-3-yl]propyl}benzoic acid], the IC50 was 160 nM. In the case of `O=C(O)c1ccc(OCCc2c(CCNS(=O)(=O)Cc3ccccc3[N+](=O)[O-])n(C(c3ccccc3)c3ccccc3)c3ccc(Cl)cc23)cc1` [Example 9, 4-{2-[1-Benzhydryl-5-chloro-2-(2-[({2-nitrobenzyl}-sulfonyl)amino]ethyl}-1H-indol-3-yl)ethoxy]benzoic acid], the IC50 is reported as 700 nM. For `O=C(O)c1ccc(OCCc2c(CCNS(=O)(=O)CCn3ncnn3)n(C(c3ccccc3)c3ccccc3)c3ccc(Cl)cc23)cc1` [Example 103, 4-(2-{1-benzhydryl-5-chloro-2-[2-(2-tetrazol-2-yl-ethanesulfonylamino)-ethyl]-1H-indol-3-yl}ethoxy)benzoic acid], the IC50 was 1100 nM. `O=C(O)c1ccc(OCCc2c(CCNS(=O)(=O)Cc3c(F)cccc3[N+](=O)[O-])n(C(c3ccccc3)c3ccccc3)c3ccc(Cl)cc23)cc1` [Example 72, 4-{2-[1-Benzhydryl-5-chloro-2-(2-{[(2-fluoro-6-nitrobenzyl)sulfonyl]amino}ethyl)-1H-indol-3-yl]ethoxy)benzoic acid] was tested, and the IC50 was 280 nM. `O=C(O)c1ccc(OCCc2c(CCNS(=O)(=O)c3ccc(Cl)c(Cl)c3)n(C(c3ccccc3)c3ccccc3)c3ccc(Cl)cc23)cc1` [Example 28, 4-{2-[1-benzhydryl-5-chloro-2-(2{[(3,4-dichlorophenyl)sulfonyl]amino}ethyl)-1H-indol-3-yl]ethoxy}benzoic acid] was tested, and the IC50 was 950 nM. Molecule `O=C(O)c1ccc(OCCc2c(CCNS(=O)(=O)c3cnc(Cl)c(Br)c3)n(C(c3ccccc3)c3ccccc3)c3ccc(Cl)cc23)cc1` [Example 5, 4-{2-[1-Benzhydryl-2-(2-{[(5-bromo6-chloro-3-pyridinyl)sulfonyl]amino}ethyl)-5-chloro-1H-indol-3-yl]ethoxy}benzoic acid] has an IC50 of 3000 nM.
